Assay results published in patent publication US20180207228A1, “PEPTIDE COMBINATIONS AND USES THEREOF FOR TREATING GRASS ALLERGY” (ALK-Abelló A/S, priority 2015, published 2018).
Where no end group is shown, it is not given here.

Legend:
Format in all cases: cell-based, human
[1] = tested on: allergen specific T cells; assay: T cell proliferation assay (72 h) on donor derived T cell lines (TCL02/TCL03); conditions: for Proliferation % donor coverage (TCL-02 DK1): T cell lines TCL-02 DK1, 30 donors, hit criteria SI>=2, CPM>=1000; for Proliferation strength (TCL-02 DK1): T cell lines TCL-02 DK1, strength of response (average relative magnitude)
How it was run: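 CD8-depleted PBMCs from grass-allergic donors stimulated with natural grass allergen mix (nPhl p 1 0.5 μg/ml) to raise T cell lines; restimulated with irradiated APCs, allergens or PHA-P (0.5 μg/ml) plus rIL-2. Proliferation to overlapping 20-mer and selected 15-mer grass peptides tested with TCL02 (day 24) or TCL03 (day 34).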

[2] = tested on: release of IL-5 upon T cell activation; assay: Fluorospot assay, IL-5 release (DK1-TCL01, US1-TCL01); conditions: head prints TCL-02 DK1; text: 25 TCL-01 DK1 lines
Experimental: (§1) Grass allergic donors were recruited (cohort DK1 including 30 grass allergic individuals, DK2 including 24 grass allergic individuals and US1 including 15 grass allergic individuals). PBMCs were isolated from freshly drawn heparinized blood by gradient centrifugation on lymphoprep (Nycomed, Norway), washed twice and re-suspended in RPMI 1640 medium with HEPES and ultraglutamine (Cambrex, Belgium) supplemented with 5% v/v human AB-serum (Cambrex, Belgium), 100 units/ml penicillin, and 0.1 mg/ml streptomycin (Sigma, St Louis, USA) (referred to as 5% AB-medium). Aliquots of the isolated PBMCs were frozen and were thawed later to stimulate the T cell lines. Additionally either fresh or thawed PBMCs were used as antigen presenting cells (APCs) in the proliferation assay as described later. In some cases the PBMCs were freezed at this stage and thawed later on to continue the experiment as described in the following. The isolated PBMCs (fresh or thawed) were CD8 depleted by MACS magnetic depletion according to the manufacturer's instructions (Miltenyi Biotec, Bergisch Gladbach, Germany). On day 0 the CD8-depleted PBMCs (2×10^6/ml) were stimulated in 1 ml bulk cultures in AB medium in 24 well plates (Nunc, Denmark) with the mixture of natural allergens: nPhl p 1 (0.5 μg/ml), mix of nPhl p 2/nPhl p 3 (1.0 μg/ml), nPhl p 4 (0.5 μg/ml), nPhl p 5 (0.5 μg/ml) and nCyn d 1 (0.5 μg/ml). Amount of 65 U, 30 U, and 30 U recombinant IL-2 (Chiron, USA) were added per well at days 5, 6 and 7, respectively. On day 14 cells were harvested to obtain T cell line generation 01 (referred to as TCL01).
(§2) On day 14 the T cells of TCL01 were isolated, washed and counted. The isolated T cells of TCL01 generation were used to perform either ELISpot or Fluorospot assay. TCL01 were further re-stimulated as described in the next paragraph for use in T cell proliferation. The aliquot for use in T cell proliferation was re-stimulated on day 14 to carry out proliferation experiment at day 24.
(§3) In the Fluorospot assays, release of IL-5 and IFN-γ upon T cell activation (of donor derived lines DK1-TCL01, and US1-TCL01) with a peptide or a peptide-mix described herein was measured by Fluorospot assay kit (Mabtech AB) and procedures were followed as per manufacturer's instructions. Briefly anti-human IL-5 and anti-human IFN-γ coated 96 well plates were obtained and blocked with 10% AB serum in RPMI. The plates were washed thoroughly and the isolated T cells were plated and incubated with either single peptides (2 μg/ml) or peptide mixes (2 μg/ml), or allergens nPhl p1, nPhl p 2, nPhl p 3, nPhl p 4, nPhl p 5, Cyn d 1 at 2 μg/ml for 20 hrs/37° C./5% CO2. After the incubation time the cells were removed by emptying the plate. Detection antibodies 7-B6-1-FS-FITC (1:200) and 5A10-biotin (2 μg/ml) were diluted in PBS-0.1% BSA and were added to the plate and incubated for 2 hours/room temperature (RT). There-after the plates were washed and anti-FITC-green (1:200) and SA-Red (1:200) diluted in PBS±0.1% BSA were added and incubated for 1 hour/RT/dark. After the incubation period the plates were washed, emptied and fluorescence enhancer solution was added for 15 minutes/RT. Plates were emptied, fluorescence enhancer solution was firmly tapped out against a clean paper, soft plastic under drain was removed and the plates were left in the dark to dry. The counts were inspected in a fluorospot reader. Hit criteria for peptide were 20 SFCs/10^6 PBMCs, p≤0.05 and poisson 0.05 stimulated cells compared to background, and a stimulation index (SI)≥2.
(§4) The peptides were identified as hits if they fulfilled the criteria as mentioned below where stimulation index (SI) value of 2 or above, Poisson value=<0.05 and P value=<0.05, SFC>=20 (IL-5/IFN-g)/10^6 cells and CPM>=1000 (proliferation) SI can be defined as [[…]/medium control] in a Fluorospot assay and [counts per minute (cpm)/medium control] in a proliferation assay.

[3] = tested on: release of IFN-γ upon T cell activation; assay: Fluorospot assay, IFN-γ release (DK1-TCL01, US1-TCL01); conditions: head prints TCL-02 DK1; 17 TCL-01 DK1 lines
Experimental: as §1, §2, §3, §4

Row | Compound | Proliferation % donor coverage (TCL-02 DK1) [1] [%] | Proliferation strength (TCL-02 DK1) [1] | IL-5-Fluorospotr % donor coverage (TCL-02 DK1) [2] [%] | IFN-gamma % donor coverage (TCL-02 DK1) [3] [%]
1 | FRRVKSKYPEGTKVTFHVEK-OH [compound 23] | 20.00 | 1.60 | 4.00 | 0.00
2 | SKYPSGTKITFHIEKGSNDH-OH [compound 103] | 36.67 | 6.50 | 8.00 | 4.00
3 | GSDPKKLVLNIKYTRPGDSL-OH [compound 36] | 53.33 | 11.90 | 24.00 | 8.00
4 | DGKARTAWVDSGAQLGELYY-OH [compound 54] | 26.67 | 4.20 | 4.00 | 4.00
5 | CC[C@H](C)[C@H](NC(=O)[C@@H](NC(=O)[C@H](CCC(=O)O)NC(=O)[C@H](CC(=O)O)NC(=O)[C@H](Cc1ccccc1)NC(=O)[C@@H](NC(=O)[C@@H](N)CC(N)=O)C(C)C)C(C)C)C(=O)N1CCC[C@H]1C(=O)N[C@H](C(=O)N[C@@H](C)C(=O)N[C@@H](Cc1ccccc1)C(=O)N[C@H](C(=O)N[C@H](C(=O)NCC(=O)N[C@@H](CCCCN)C(=O)O)C(C)C)[C@@H](C)O)[C@@H](C)O [compound 127] | 10.34 | 2.80 | 0.00 | 0.00
6 | EGTKVTFHVEKGSNPNYLAL-OH [compound 24] | 36.67 | 7.40 | 16.00 | 4.00
7 | AEGLSGEPKGAAESSSKAAL-OH [compound 77] | 3.33 | 0.40 | 0.00 | 0.00
8 | KPTGAGPKDNGGASGYKDVD-OH [compound 17] | 23.33 | 2.80 | 8.00 | 4.00
9 | ITATYGDKWLDAKSTWYGKP-OH [compound 16] | 10.00 | 0.70 | 0.00 | 4.00
10 | FAVVDLNKMRAVWVDGKART-OH [compound 47] | 40.00 | 6.20 | 0.00 | 8.00
11 | GAASNKAFAEGLSGEPKGAA-OH [compound 76] | 16.67 | 1.60 | 0.00 | 0.00
12 | KPPFSGMTGSGNTPIFKSGR-OH [compound 19] | 16.67 | 1.10 | 0.00 | 0.00
13 | EVELREHGSDEWVAMTKGEG-OH [compound 33] | 0.00 | 0.00 | 0.00 | 0.00
14 | KEDFLGSLVKEIPPRLLYAK-OH [compound 45] | 20.00 | 4.00 | 4.00 | 0.00
15 | AMSEAQKAAKPAAAATATAT-OH [compound 86] | 10.00 | 1.40 | 0.00 | 0.00
16 | KDKWIELKESWGAIWRIDTP-OH [compound 10] | 60.00 | 9.80 | 24.00 | 4.00
17 | CC(C)C[C@H](NC(=O)[C@H](CCC(=O)O)NC(=O)CN)C(=O)N[C@@H](CCC(=O)O)C(=O)N[C@@H](CC(C)C)C(=O)N[C@@H](CCC(N)=O)C(=O)N[C@@H](Cc1ccccc1)C(=O)N[C@@H](CCCNC(=N)N)C(=O)N[C@@H](CCCNC(=N)N)C(=O)N[C@H](C(=O)N[C@@H](CCCCN)C(=O)N[C@@H](CO)C(=O)N[C@@H](CCCCN)C(=O)N[C@@H](Cc1ccc(O)cc1)C(=O)N1CCC[C@H]1C(=O)O)C(C)C [compound 118] | 65.52 | 11.50 | 25.00 | 4.00
18 | GNTPIFKSGRGSGSSFEIKS-OH [compound 20] | 13.33 | 1.40 | 0.00 | 0.00
19 | EWVAMTKGEGGVWTFDSEEP-OH [compound 27] | 13.33 | 2.30 | 8.00 | 4.00
20 | LSYRSLQPETFAVVDLNKMR-OH [compound 53] | 10.00 | 1.20 | 0.00 | 4.00
21 | HGSEEWEPLTKKGNVWEVKS-OH [compound 37] | 26.67 | 3.20 | 4.00 | 0.00
